Laboratory results: US11946041B2, “Modification of polypeptides” (BicycleRD Limited, priority 2017, dated 2024)

Legend:
CCR4 [1] = target: T1, CCR4 (Homo sapiens, UniProt P51679); assay: PathHunter eXpress CCR4 CHO-K1 β-Arrestin GPCR Assay, agonist format; assay type: cell-based
T1 construct: host or cells: CHO-K1
T1 sequence (P51679 1-360): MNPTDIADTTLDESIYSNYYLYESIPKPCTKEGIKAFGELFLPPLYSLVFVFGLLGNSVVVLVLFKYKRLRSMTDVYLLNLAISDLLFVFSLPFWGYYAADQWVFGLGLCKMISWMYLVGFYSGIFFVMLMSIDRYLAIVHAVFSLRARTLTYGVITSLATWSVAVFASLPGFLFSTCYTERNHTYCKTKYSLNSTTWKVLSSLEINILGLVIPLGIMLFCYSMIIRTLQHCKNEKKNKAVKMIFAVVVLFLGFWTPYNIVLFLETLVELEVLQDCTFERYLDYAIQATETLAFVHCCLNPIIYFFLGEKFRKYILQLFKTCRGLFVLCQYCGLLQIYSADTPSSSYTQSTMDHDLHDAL
Description: (§1) The aim of the present experiment was to analyze if if these peptides are functional using a Discoverx Assay, the Beta-Arrestin recruitment assay, to identify agonism or antagonism in the selected peptides.
(§2) Standard protocols used: • PathHunter® eXpress CCR4 CHO-K1 β-Arrestin GPCR Assay. 100 dp (1×96-well)
(§3) The experiment was carried using the manufacturer instructions.
The concentration was increased to test for response at high concentration.

CCR4 [2] = target: T1, CCR4; assay: PathHunter eXpress CCR4 CHO-K1 β-Arrestin GPCR Assay, antagonist format with CCL22; assay type: cell-based; conditions: for IC80: 10 nM CCL22
Description: as §1, §2, §3
We therefore used the assay in an antagonist format, using 10 nM CCL22.
We repeated this experiment lowering the concentration of CCL22 from 10 nM to 1 nM to show a full inhibition curve.

ACQLTCLPPPRQPGCA [24-15-00-N001, bicyclic peptide ligand, TATA scaffold, from CCR4 cell-based selection]
Raw Data (CCR4 [1]; 0.006 nM): 28566
Raw Data (CCR4 [1]; 0.02 nM): 27298
Raw Data (CCR4 [1]; 0.06 nM): 26888
Raw Data (CCR4 [1]; 0.17 nM): 28025
Raw Data (CCR4 [1]; 0.51 nM): 31189
Raw Data (CCR4 [1]; 1.5 nM): 30670
Raw Data (CCR4 [1]; 4.6 nM): 27635
Raw Data (CCR4 [1]; 13.9 nM): 25509
Raw Data (CCR4 [1]; 41.7 nM): 24463
Raw Data (CCR4 [1]; 125 nM): 22916
Raw Data (CCR4 [1]; 375 nM): 24222
Raw Data (CCR4 [1]; high concentration, 0.001 uM): 10900
Raw Data (CCR4 [1]; high concentration, 0.003 uM): 11501
Raw Data (CCR4 [1]; high concentration, 0.008 uM): 12079
Raw Data (CCR4 [1]; high concentration, 0.023 uM): 12121
Raw Data (CCR4 [1]; high concentration, 0.1 uM): 13265
Raw Data (CCR4 [1]; high concentration, 0.2 uM): 13225
Raw Data (CCR4 [1]; high concentration, 0.6 uM): 13586
Raw Data (CCR4 [1]; high concentration, 1.9 uM): 13457
Raw Data (CCR4 [1]; high concentration, 5.6 uM): 13067
Raw Data (CCR4 [1]; high concentration, 16.7 uM): 13469
Raw Data (CCR4 [1]; high concentration, 50 uM): 10917
range of antagonism activity (CCR4 [2]): micromolar range
antagonist for CCR4 (CCR4 [2]; 1 nM CCL22): antagonist
Raw Data (CCR4 [2]; 1 nM CCL22, 0.001 uM): 244512
Raw Data (CCR4 [2]; 1 nM CCL22, 0.003 uM): 269008
Raw Data (CCR4 [2]; 1 nM CCL22, 0.008 uM): 278839
Raw Data (CCR4 [2]; 1 nM CCL22, 0.023 uM): 265078
Raw Data (CCR4 [2]; 1 nM CCL22, 0.1 uM): 267763
Raw Data (CCR4 [2]; 1 nM CCL22, 0.2 uM): 233858
Raw Data (CCR4 [2]; 1 nM CCL22, 0.6 uM): 230668
Raw Data (CCR4 [2]; 1 nM CCL22, 1.9 uM): 210573
Raw Data (CCR4 [2]; 1 nM CCL22, 5.6 uM): 168855
Raw Data (CCR4 [2]; 1 nM CCL22, 16.7 uM): 47343
Raw Data (CCR4 [2]; 1 nM CCL22, 50 uM): 37690
IC80 (CCR4 [2]): 14 µM
Raw Data (CCR4 [2]; 10 nM CCL22, 0.001 uM): 166495
Raw Data (CCR4 [2]; 10 nM CCL22, 0.003 uM): 152456
Raw Data (CCR4 [2]; 10 nM CCL22, 0.008 uM): 159966
Raw Data (CCR4 [2]; 10 nM CCL22, 0.023 uM): 163145
Raw Data (CCR4 [2]; 10 nM CCL22, 0.1 uM): 162443
Raw Data (CCR4 [2]; 10 nM CCL22, 0.2 uM): 160790
Raw Data (CCR4 [2]; 10 nM CCL22, 0.6 uM): 164042
Raw Data (CCR4 [2]; 10 nM CCL22, 1.9 uM): 149995
Raw Data (CCR4 [2]; 10 nM CCL22, 5.6 uM): 119202
Raw Data (CCR4 [2]; 10 nM CCL22, 16.7 uM): 94688
Raw Data (CCR4 [2]; 10 nM CCL22, 50 uM): 55746

ACRAVHSLRCLTTCA [24-17-00-N001, bicyclic peptide ligand, TATA scaffold, from CCR4 cell-based selection]
Raw Data (CCR4 [1]; 0.006 nM): 27836
Raw Data (CCR4 [1]; 0.02 nM): 26107
Raw Data (CCR4 [1]; 0.06 nM): 29865
Raw Data (CCR4 [1]; 0.17 nM): 29746
Raw Data (CCR4 [1]; 0.51 nM): 27025
Raw Data (CCR4 [1]; 1.5 nM): 27917
Raw Data (CCR4 [1]; 4.6 nM): 25017
Raw Data (CCR4 [1]; 13.9 nM): 23972
Raw Data (CCR4 [1]; 41.7 nM): 23928
Raw Data (CCR4 [1]; 125 nM): 23999
Raw Data (CCR4 [1]; 375 nM): 22611
Raw Data (CCR4 [1]; high concentration, 0.001 uM): 11608
Raw Data (CCR4 [1]; high concentration, 0.003 uM): 11809
Raw Data (CCR4 [1]; high concentration, 0.008 uM): 13248
Raw Data (CCR4 [1]; high concentration, 0.023 uM): 13984
Raw Data (CCR4 [1]; high concentration, 0.1 uM): 14856
Raw Data (CCR4 [1]; high concentration, 0.2 uM): 15518
Raw Data (CCR4 [1]; high concentration, 0.6 uM): 15965
Raw Data (CCR4 [1]; high concentration, 1.9 uM): 17244
Raw Data (CCR4 [1]; high concentration, 5.6 uM): 17261
Raw Data (CCR4 [1]; high concentration, 16.7 uM): 16709
Raw Data (CCR4 [1]; high concentration, 50 uM): 16749
Raw Data (CCR4 [2]; 1 nM CCL22, 0.001 uM): 272073
Raw Data (CCR4 [2]; 1 nM CCL22, 0.003 uM): 292052
Raw Data (CCR4 [2]; 1 nM CCL22, 0.008 uM): 301675
Raw Data (CCR4 [2]; 1 nM CCL22, 0.023 uM): 285103
Raw Data (CCR4 [2]; 1 nM CCL22, 0.1 uM): 296795
Raw Data (CCR4 [2]; 1 nM CCL22, 0.2 uM): 246983
Raw Data (CCR4 [2]; 1 nM CCL22, 0.6 uM): 252179
Raw Data (CCR4 [2]; 1 nM CCL22, 1.9 uM): 240952
Raw Data (CCR4 [2]; 1 nM CCL22, 5.6 uM): 197381
Raw Data (CCR4 [2]; 1 nM CCL22, 16.7 uM): 125610
Raw Data (CCR4 [2]; 1 nM CCL22, 50 uM): 114156
Raw Data (CCR4 [2]; 10 nM CCL22, 0.001 uM): 164018
Raw Data (CCR4 [2]; 10 nM CCL22, 0.003 uM): 174559
Raw Data (CCR4 [2]; 10 nM CCL22, 0.008 uM): 143078
Raw Data (CCR4 [2]; 10 nM CCL22, 0.023 uM): 164921
Raw Data (CCR4 [2]; 10 nM CCL22, 0.1 uM): 153182
Raw Data (CCR4 [2]; 10 nM CCL22, 0.2 uM): 151630
Raw Data (CCR4 [2]; 10 nM CCL22, 0.6 uM): 146982
Raw Data (CCR4 [2]; 10 nM CCL22, 1.9 uM): 132070
Raw Data (CCR4 [2]; 10 nM CCL22, 5.6 uM): 148721
Raw Data (CCR4 [2]; 10 nM CCL22, 16.7 uM): 140316
Raw Data (CCR4 [2]; 10 nM CCL22, 50 uM): 153988

ACLNGCRNTNSQCA [24-11-00-N001, bicyclic peptide ligand, TATA scaffold, from CCR4 cell-based selection]
Raw Data (CCR4 [1]; 0.006 nM): 24609
Raw Data (CCR4 [1]; 0.02 nM): 24123
Raw Data (CCR4 [1]; 0.06 nM): 27885
Raw Data (CCR4 [1]; 0.17 nM): 25757
Raw Data (CCR4 [1]; 0.51 nM): 27976
Raw Data (CCR4 [1]; 1.5 nM): 27602
Raw Data (CCR4 [1]; 4.6 nM): 26096
Raw Data (CCR4 [1]; 13.9 nM): 22941
Raw Data (CCR4 [1]; 41.7 nM): 22581
Raw Data (CCR4 [1]; 125 nM): 22195
Raw Data (CCR4 [1]; 375 nM): 19528
Raw Data (CCR4 [1]; high concentration, 0.001 uM): 9494
Raw Data (CCR4 [1]; high concentration, 0.003 uM): 10549
Raw Data (CCR4 [1]; high concentration, 0.008 uM): 10183
Raw Data (CCR4 [1]; high concentration, 0.023 uM): 11338
Raw Data (CCR4 [1]; high concentration, 0.1 uM): 11394
Raw Data (CCR4 [1]; high concentration, 0.2 uM): 12202
Raw Data (CCR4 [1]; high concentration, 0.6 uM): 11009
Raw Data (CCR4 [1]; high concentration, 1.9 uM): 11006
Raw Data (CCR4 [1]; high concentration, 5.6 uM): 10444
Raw Data (CCR4 [1]; high concentration, 16.7 uM): 10968
Raw Data (CCR4 [1]; high concentration, 50 uM): 9993
Raw Data (CCR4 [2]; 1 nM CCL22, 0.001 uM): 139740
Raw Data (CCR4 [2]; 1 nM CCL22, 0.003 uM): 146107
Raw Data (CCR4 [2]; 1 nM CCL22, 0.008 uM): 158208
Raw Data (CCR4 [2]; 1 nM CCL22, 0.023 uM): 155622
Raw Data (CCR4 [2]; 1 nM CCL22, 0.1 uM): 132431
Raw Data (CCR4 [2]; 1 nM CCL22, 0.2 uM): 136037
Raw Data (CCR4 [2]; 1 nM CCL22, 0.6 uM): 141369
Raw Data (CCR4 [2]; 1 nM CCL22, 1.9 uM): 129872
Raw Data (CCR4 [2]; 1 nM CCL22, 5.6 uM): 110179
Raw Data (CCR4 [2]; 1 nM CCL22, 16.7 uM): 106271
Raw Data (CCR4 [2]; 1 nM CCL22, 50 uM): 85131
IC80 (CCR4 [2]): 9.29 µM
Raw Data (CCR4 [2]; 10 nM CCL22, 0.001 uM): 164482
Raw Data (CCR4 [2]; 10 nM CCL22, 0.003 uM): 157449
Raw Data (CCR4 [2]; 10 nM CCL22, 0.008 uM): 146640
Raw Data (CCR4 [2]; 10 nM CCL22, 0.023 uM): 154833
Raw Data (CCR4 [2]; 10 nM CCL22, 0.1 uM): 154951
Raw Data (CCR4 [2]; 10 nM CCL22, 0.2 uM): 151383
Raw Data (CCR4 [2]; 10 nM CCL22, 0.6 uM): 163219
Raw Data (CCR4 [2]; 10 nM CCL22, 1.9 uM): 153353
Raw Data (CCR4 [2]; 10 nM CCL22, 5.6 uM): 145586
Raw Data (CCR4 [2]; 10 nM CCL22, 16.7 uM): 127180
Raw Data (CCR4 [2]; 10 nM CCL22, 50 uM): 119853
